Experimental data published in ChEMBL document CHEMBL1201861, “Genomics of Drug Sensitity in Cancer screening data, Wellcome Trust Sanger Institute”.

Tests used:
Assay in all cases: cells
Type in all cases: functional, cell-based, Homo sapiens
COR-L88 = conditions: Homo sapiens, COR-L88;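 note: growth inhibition of COR-L88 cells, read out with a cell viability assay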
Description: SANGER: Inhibition of human COR-L88 cell growth in a cell viability assay.

D-392MG = conditions: Homo sapiens, D-392MG
ES8 = conditions: Homo sapiens, ES8;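 note: growth inhibition of human ES8 cells, read out with a cell viability assay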
Description: SANGER: Inhibition of human ES8 cell growth in a cell viability assay.

EW-18 = conditions: Homo sapiens, EW-18;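 note: growth inhibition of EW-18 cells, read out by a cell viability assay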
Description: SANGER: Inhibition of human EW-18 cell growth in a cell viability assay.

EOL1 = conditions: Homo sapiens, EOL1;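 note: growth inhibition of EoL-1 cells, read out by a cell viability assay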
Description: SANGER: Inhibition of human EoL-1-cell cell growth in a cell viability assay.

GB-1 = conditions: Homo sapiens, GB-1;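 note: growth of GB-1 cells judged by a viability assay, IC50 marks the concentration inhibiting growth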
Description: SANGER: Inhibition of human GB-1 cell growth in a cell viability assay.

GI-ME-N = conditions: Homo sapiens, GI-ME-N;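 note: growth inhibition of human GI-ME-N cells, read out with a cell viability assay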
Description: SANGER: Inhibition of human GI-ME-N cell growth in a cell viability assay.

GR-ST = conditions: Homo sapiens, GR-ST
Description: SANGER: Inhibition of human GR-ST cell growth in a cell viability assay.

HC-1 = conditions: Homo sapiens, HC-1;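 note: growth inhibition of HC-1 cells measured by a cell viability assay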
Description: SANGER: Inhibition of human HC-1 cell growth in a cell viability assay.

HH = conditions: Homo sapiens, HH
Description: SANGER: Inhibition of human HH cell growth in a cell viability assay.

HOP-62 = conditions: Homo sapiens, HOP-62;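 note: cell growth inhibition determined with a viability assay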
Description: SANGER: Inhibition of human HOP-62 cell growth in a cell viability assay.

IST-SL1 = conditions: Homo sapiens, IST-SL1;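 note: growth inhibition of human IST-SL1 cells, read out with a cell viability assay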
Description: SANGER: Inhibition of human IST-SL1 cell growth in a cell viability assay.

K562 = conditions: Homo sapiens, K562
Description: SANGER: Inhibition of human K-562 cell growth in a cell viability assay.

KALS-1 = conditions: Homo sapiens, KALS-1;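 note: growth inhibition of KALS-1 cells, determined with a cell viability assay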
Description: SANGER: Inhibition of human KALS-1 cell growth in a cell viability assay.

KGN = conditions: Homo sapiens, KGN;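 note: growth inhibition of KGN cells, read out with a cell viability assay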
Description: SANGER: Inhibition of human KGN cell growth in a cell viability assay.

KLE = conditions: Homo sapiens, KLE;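 note: growth inhibition of human KLE cells, read out with a cell viability assay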
Description: SANGER: Inhibition of human KLE cell growth in a cell viability assay.

KM12 = conditions: Homo sapiens, KM12;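 note: KM12 cell growth inhibition, read out with a cell viability assay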
Description: SANGER: Inhibition of human KM12 cell growth in a cell viability assay.

KU812 cell line = conditions: Homo sapiens, KU812;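 note: growth inhibition of KU812 cells, read out with a cell viability assay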
Description: SANGER: Inhibition of human KU812 cell growth in a cell viability assay.

KY821 = conditions: Homo sapiens, KY821;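 note: growth inhibition of human KY821 cells, read out by a cell viability assay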
Description: SANGER: Inhibition of human KY821 cell growth in a cell viability assay.

LB1047-RCC = conditions: Homo sapiens, LB1047-RCC;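 note: inhibition of cell growth, determined with a cell viability assay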
Description: SANGER: Inhibition of human LB1047-RCC cell growth in a cell viability assay.

LB2241-RCC = conditions: Homo sapiens, LB2241-RCC;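 note: cell viability assay measuring how strongly the cultured human renal carcinoma line is prevented from growing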
Description: SANGER: Inhibition of human LB2241-RCC cell growth in a cell viability assay.

LB373-MEL-D = conditions: Homo sapiens, LB373-MEL-D;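 note: growth inhibition of the cell line, read out in a cell viability assay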
Description: SANGER: Inhibition of human LB373-MEL-D cell growth in a cell viability assay.

LB831-BLC = conditions: Homo sapiens, LB831-BLC;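 note: growth inhibition of LB831-BLC cells, read out with a cell viability assay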
Description: SANGER: Inhibition of human LB831-BLC cell growth in a cell viability assay.

MHH-NB-11 = conditions: Homo sapiens, MHH-NB-11;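 note: growth inhibition of human MHH-NB-11 cells, read out by a cell viability assay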
Description: SANGER: Inhibition of human MHH-NB-11 cell growth in a cell viability assay.

ML-2 = conditions: Homo sapiens, ML-2;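 note: growth inhibition of ML-2 cells, measured with a cell viability readout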
Description: SANGER: Inhibition of human ML-2 cell growth in a cell viability assay.

MMAC-SF = conditions: Homo sapiens, MMAC-SF;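 note: growth inhibition of human MMAC-SF cells, read out with a cell viability assay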
Description: SANGER: Inhibition of human MMAC-SF cell growth in a cell viability assay.

MPP-89 = conditions: Homo sapiens, MPP-89;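 note: growth inhibition of human MPP-89 cells, read out with a cell viability assay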
Description: SANGER: Inhibition of human MPP-89 cell growth in a cell viability assay.

NCI-H1299 = conditions: Homo sapiens, NCI-H1299;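 note: growth inhibition of human NCI-H1299 cells, read out by a cell viability assay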
Description: SANGER: Inhibition of human NCI-H1299 cell growth in a cell viability assay.

NCI-H1581 = conditions: Homo sapiens, NCI-H1581;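 note: cell growth inhibition read out by a viability assay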
Description: SANGER: Inhibition of human NCI-H1581 cell growth in a cell viability assay.

NCI-H1838 = conditions: Homo sapiens, NCI-H1838;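 note: growth inhibition of NCI-H1838 cells, determined with a cell viability readout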
Description: SANGER: Inhibition of human NCI-H1838 cell growth in a cell viability assay.

NCI-H526 = conditions: Homo sapiens, NCI-H526;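 note: growth inhibition of the human NCI-H526 cell line, measured by a cell viability assay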
Description: SANGER: Inhibition of human NCI-H526 cell growth in a cell viability assay.

NKM-1 = conditions: Homo sapiens, NKM-1;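 note: growth inhibition of NKM-1 cells, read out with a cell viability assay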
Description: SANGER: Inhibition of human NKM-1 cell growth in a cell viability assay.

NMC-G1 = conditions: Homo sapiens, NMC-G1;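 note: growth inhibition of the NMC-G1 cell line, measured with a cell viability read-out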
Description: SANGER: Inhibition of human NMC-G1 cell growth in a cell viability assay.

ONS-76 = conditions: Homo sapiens, ONS-76;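 note: growth inhibition of human ONS-76 cells, read out with a cell viability assay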
Description: SANGER: Inhibition of human ONS-76 cell growth in a cell viability assay.

SK-PN-DW = conditions: Homo sapiens, SK-PN-DW;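 note: growth inhibition measured with a viability assay on these cells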
Description: SANGER: Inhibition of human SK-PN-DW cell growth in a cell viability assay.

SK-UT-1 = conditions: Homo sapiens, SK-UT-1;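 note: growth inhibition of SK-UT-1 cells, measured by a cell viability assay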
Description: SANGER: Inhibition of human SK-UT-1 cell growth in a cell viability assay.

SW 962 = conditions: Homo sapiens, SW 962;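 note: growth inhibition of human SW962 cells, read out by a cell viability assay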
Description: SANGER: Inhibition of human SW962 cell growth in a cell viability assay.

A101D = conditions: Homo sapiens, A101D;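 note: growth inhibition of the cell line, measured with a viability assay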
Description: SANGER: Inhibition of human A101D cell growth in a cell viability assay.

A3-KAW = conditions: Homo sapiens, A3-KAW;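 note: growth inhibition of human A3-KAW cells, read out with a cell viability assay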
Description: SANGER: Inhibition of human A3-KAW cell growth in a cell viability assay.

ALL-PO = conditions: Homo sapiens, ALL-PO;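 note: growth inhibition of ALL-PO cells, read out by a cell viability assay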
Description: SANGER: Inhibition of human ALL-PO cell growth in a cell viability assay.

BE-13 = conditions: Homo sapiens, BE-13;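 note: growth inhibition of human BE-13 cells, measured with a cell viability assay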
Description: SANGER: Inhibition of human BE-13 cell growth in a cell viability assay.

Becker = conditions: Homo sapiens, Becker;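 note: growth inhibition of Becker cells, read out with a cell viability assay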
Description: SANGER: Inhibition of human Becker cell growth in a cell viability assay.

TE-5 = conditions: Homo sapiens, TE-5;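 note: inhibition of cell growth, read out by a cell viability assay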
Description: SANGER: Inhibition of human TE-5 cell growth in a cell viability assay.

TGBC24TKB = conditions: Homo sapiens, TGBC24TKB;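 note: growth inhibition of human TGBC24TKB cells, read out with a cell viability assay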
Description: SANGER: Inhibition of human TGBC24TKB cell growth in a cell viability assay.

VA-ES-BJ = conditions: Homo sapiens, VA-ES-BJ;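 note: growth inhibition of the VA-ES-BJ cell line, read out by a cell viability assay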
Description: SANGER: Inhibition of human VA-ES-BJ cell growth in a cell viability assay.

CCRF-CEM = conditions: Homo sapiens, CCRF-CEM;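 note: inhibition of CCRF-CEM cell growth, measured by a cell viability assay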
Description: SANGER: Inhibition of human CCRF-CEM cell growth in a cell viability assay.

CGTH-W-1 = conditions: Homo sapiens, CGTH-W-1;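 note: growth inhibition of human CGTH-W-1 cells measured by cell viability assay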
Description: SANGER: Inhibition of human CGTH-W-1 cell growth in a cell viability assay.

Nc1ccn([C@@H]2O[C@H](CO)[C@@H](O)C2(F)F)c(=O)n1 [GEMCITABINE] was tested, and the IC50 (COR-L88) was > 1020 nM, the IC50 (D-392MG) was 1020 nM and the IC50 (ES8) was < 4 nM. The IC50 (EW-18) was 72.8 nM, the IC50 (EOL1) was < 4 nM and the IC50 (GB-1) was 5.84 nM. The IC50 (GI-ME-N) was > 1020 nM, the IC50 (GR-ST) was < 4 nM and the IC50 (HC-1) was < 4 nM. The IC50 (HH) was 35.1 nM, the IC50 (HOP-62) was 223 nM and the IC50 (IST-SL1) was 197 nM. For the same molecule, the IC50 (K562) was 333 nM, the IC50 (KALS-1) was 21.4 nM and the IC50 (KGN) was < 4 nM. It also gave an IC50 (KLE) of 459 nM, an IC50 (KM12) of 91.5 nM and an IC50 (KU812 cell line) of 1.91 nM. The IC50 (KY821) was > 1020 nM, the IC50 (LB1047-RCC) was < 4 nM and the IC50 (LB2241-RCC) was < 4 nM. For the same molecule, the IC50 (LB373-MEL-D) was > 1020 nM, the IC50 (LB831-BLC) was 41.9 nM and the IC50 (MHH-NB-11) was 386 nM. The IC50 (ML-2) was 25.7 nM, the IC50 (MMAC-SF) was > 1020 nM and the IC50 (MPP-89) was 692 nM. The IC50 (NCI-H1299) was < 4 nM, the IC50 (NCI-H1581) was > 1020 nM and the IC50 (NCI-H1838) was > 1020 nM. For the same molecule, the IC50 (NCI-H526) was 110 nM, the IC50 (NKM-1) was < 4 nM and the IC50 (NMC-G1) was 8.76 nM. For the same molecule, the IC50 (ONS-76) was 8.68 nM, the IC50 (SK-PN-DW) was < 4 nM and the IC50 (SK-UT-1) was < 4 nM. For the same molecule, the IC50 (SW 962) was 52.4 nM, the IC50 (A101D) was 9.37 nM and the IC50 (A3-KAW) was < 4 nM. The IC50 (ALL-PO) was < 4 nM, the IC50 (BE-13) was 5.21 nM and the IC50 (Becker) was 267 nM. For the same molecule, the IC50 (TE-5) was < 4 nM, the IC50 (TGBC24TKB) was > 1020 nM and the IC50 (VA-ES-BJ) was 5.26 nM. It also gave an IC50 (CCRF-CEM) of 18.8 nM and an IC50 (CGTH-W-1) of 2.72 nM.
